# Laboratory results from patent EP0113880A2, “Derivatives from 2-azabicyclo(2.2.1)heptane, process for their preparation, agents containing them and their use, and 2-azabicyclo(2.2.1)heptane derivatives as intermediates, and process for their preparation” (HOECHST AKTIENGESELLSCHAFT, priority 1982, dated 1984).
# Counter-ions that a name gives are not always drawn. Like-named read-outs stand apart in the source and are kept apart here.
# Tested on: durch 310 ng Angiotensin I ausgelösten Pressorreaktion
# Assay: Inhibition of the angiotensin I induced pressor response after intraduodenal administration to the anaesthetised rat
# Assay type: in vivo, Ratte
# Settings: dose giving 50 % inhibition of the pressor response to 310 ng angiotensin I, 30 min after application
# Protocol: Intraduodenale Gabe an der narkotisierten Ratte, 50 % Hemmung der durch 310 ng Angiotensin I ausgelösten Pressorreaktion 30 min. nach Applikation in der Dosis .............- ED50: […]
Compound,ED50 [mg/kg],ED50 (30 min) [mg/kg],further results
CCOC(=O)[C@H](CC(=O)c1ccccc1)N[C@@H](C)C(=O)N1[C@H]2CC[C@H](C2)[C@H]1C(=O)O [N-(1-S-Carbethoxy-3-phenyl-3-oxo-propyl)-S-alanyl-2-azabicyclo [2.2.1] heptan-3-S-endo-carbonsäure. Hydrochlorid],,,"ED50 (0.5 h, read-out: ED50): 0.75 mg/kg"
N-(1-S-Carbethoxy-3-phenyl-propyl)-S-alanyl-2-azabicyclo [ 2.2.1] heptan-3-S-endo-carbonsäure-Hydrochlorid,0.5,,
CCOC(=O)[C@H](CC(=O)c1ccccc1)N[C@@H](C)C(=O)N1C2CCC(C2)[C@H]1C(=O)O (stereo partly drawn) [N-(1-S-Carbethoxy-3-oxo-3-phenyl-propyl)-S-alanyl-2-azabicyclo [2.2.1] heptan-3-S-exo-carbonsäure],0.9,,
"C[C@H](N[C@@H](CCc1ccccc1)C(=O)O)C(=O)N1C2CCC(C2)[C@H]1C(=O)O (stereo partly drawn) [n=1, X=C6H5, Y=H, Z=H, R^1=H, R^2=CH3, R=H, endo] [N-(1-S-Carboxy-3-phenyl-propyl)-S-alanyl-2-azabicyclo , [2.2.1] heptan-3-S-endo-carbonsäure]",,1.6,
"C[C@H](N[C@@H](CCc1ccccc1)C(=O)O)C(=O)N1C2CCC(C2)[C@H]1C(=O)O (stereo partly drawn) [n=1, X=C6H5, Y=H, Z=H, R^1=H, R^2=CH3, R=H, exo] [N-(1-S-Carboxy-3-phenyl-propyl)-S-alanyl-2-azabicyclo [2.2.1 J heptan-3-S-exo-carbonsäure]",,1.8,
N-(1-S-Carbethoxy-3-phenyl-propyl)-S-alanyl-2-azabicyclo [2.2.1 ] heptan-3-S-exo-carbonsäure Hydrochlorid,0.7,,
